What was measured:
SF-PhoQc = target: T1, SF-PhoQc (Shigella flexneri, UniProt Q83RR1); experiment: Luminescent Kinase Assay of SF-PhoQc; assay type: biochemical, S. flexneri 2a 301
T1 construct: The amplified DNA segment encodes PhoQ HK amino acids 251–486; made in house; host or cells: E. coli JM109
Method: Luminescent Kinase Assay was used to confirm the effects of compounds 1, 2, 3 and 4 on the enzymatic activity of SF-PhoQc. In the Luminescent Kinase Assay, the putative kinase activity of SF-PhoQc protein was measured by quantifying the amount of ATP that remained in solution after the reaction. […] Next, the effect of each compound on the enzymatic activity of SF-PhoQc was measured.
In the Luminescent Kinase assay, reactions were performed in solid black, flat-bottomed 96-well plates. To determine the IC50 of potential PhoQ HK inhibitors, each compound underwent 2-fold serial dilutions with DMSO (0.1%) and was added into the reaction mixture. The final reaction mixture contained 4 µg of purified SF-PhoQc, 40 mmol/L Tris-Cl (pH 7.5), 16 mmol/L MgCl2, 0.8 mmol/L DTT and different concentration of 100, 50, 25, 12.5, 6.25 or 3.125 µmol/L compound, respectively. After incubation at 30°C for 25 minutes, 3 µmol/L ATP was added, and the reaction was incubated at 30°C for another 25 minutes. Next, an equal volume of Luminescent Kinase Reagent was added to each well, mixed and kept at room temperature for 10 minutes before recording the luminescence reading on a Fluoroskan Ascent FL machine (Thermo Scientific, USA). The rate of phosphorylation inhibition by a compound was calculated with the following formula: [drawing 2]
The IC50 value of each compound was determined using the Origin 7.0 software (OriginLab, Northampton, USA).

S. flexneri 2a 301 = experiment: Gentamicin protection assay, HeLa cell invasion by Sf301; assay type: cell-based; details: bacteria treated 8 h, Figure S4
Method: Supplementary file pone.0023100.s004.tif: Figure S4 The effects of potential PhoQ inhibitors on cell invasion of Shigella Sf 301. […] The bacteria were treated with each of the four potential PhoQ inhibitors grown for 8 h. Then the bacteria were inoculated with HeLa cells for 60 minutes prior to the addition of gentamicin to kill extracellular bacteria. After the incubation, the HeLa cells in each well were lysed in 1 ml of PBS containing 0.1% Triton X-100. The lysates were diluted and plated onto LB agar plates in triplicate. Colonies grown on LB plates were counted. The results of the assays were expressed as the number of bacteria recovered from gentamicin-treated cells divided by the number of inoculated bacteria added to the cell. Values are means ± standard deviations from 6 independent wells. *p<0.01 vs. Sf301. […] (TIF) Click here for additional data file.

[1] = Cytotoxicity MTT assay on Vero cells; assay type: cell-based; details: African green monkey, highest concentration tested 200 µmol/L, read-out: CC50 on Vero cell
Method: The cytotoxicity of each potential PhoQ inhibitor towards a Vero cell line was analyzed by the traditional MTT assay. The CC50 values of all four compounds were higher than 200 µmol/L, the highest tested concentration of potential PhoQ inhibitors. As a control, an equal concentration of DMSO (0.1%) was added to a well of Vero cells, and no obvious cytotoxicity was observed (Table 1).
Cytotoxicity of the potential PhoQ inhibitors on cultured Vero cells was measured by using the Cell Proliferation Kit I (MTT) (Roche, Indianapolis, USA). An equal concentration of DMSO (0.1%) in the medium was used as a negative control. The cytotoxicity assay was performed in triplicate for each potential PhoQ inhibitor, and the assay for each potential PhoQ inhibitor was repeated twice. The results were converted to percentage of the control (cells only containing 0.1% DMSO) and CC50 (concentrations that produce a 50% cytotoxicity effect on Vero cell) of each potential PhoQ inhibitors was calculated using the Origin v7.0 software (OriginLab, Northampton, USA).

S. flexneri Sf9380 = experiment: Mouse Sereny test (keratoconjunctivitis); as to degree of keratoconjunctival inflammation: key: −: no disease; ±: little keratoconjunctivitis; +: mild keratoconjunctivitis; ++: keratoconjunctivitis with some purulence; +++: fully developed keratoconjunctivitis with great purulence; assay type: in vivo, BALB/c mice; details: for degree of keratoconjunctival inflammation: Sf9380 pre-treated at the concentration (I 1 12.5, I 2 25, I 3 and I 4 100 µmol/L); for eye finding at 24 hours after infection / time by which keratoconjunctivitis was resolved: 1×10^8 CFUs per eye; for keratoconjunctival inflammation (words, abstract): mice inoculated with pre-treated S. flexneri 9380
From the text: A Mouse Sereny test was used to investigate the inhibitory effect of the four potential PhoQ inhibitors on the virulence of S. flexneri Sf9380. The mice were infected with 1×10^8 CFUs per eye.
A Mouse Sereny test was used to evaluate the virulence of S. flexneri Sf9380 [48]. A single red colony of Sf9380 on Congo Red agar (Tryptic soy broth provided by Oxfoid Co. with 1.5% agar and 0.01% Congo red), was inoculated into LB and grown with or without potential PhoQ inhibitors (final concentration 100,50,25,12.5 or 6.25 µmol/L) at 37°C for 8 hours with constant shaking. The female BALB/c mice (about 18 g) were infected with 1×10^8 CFUs per eye. The eye of the mouse was inoculated with the bacterium with or without potential PhoQ inhibitor treatment (n = 6 mice in each group). […] In the experiment, mouse eyes inoculated with untreated Sf9380 (treated without DMSO) served as the positive control for keratoconjunctivitis, and mouse eyes inoculated with E. coli ATCC 25922 (treated without DMSO) served as the negative control. Because DMSO is the solvent of the potential PhoQ inhibitor, Sf9380 was treated with the same amount of DMSO (0.1%) as the other groups. The invasiveness of the bacteria was scored: no disease or mild irritation as “−”, + as mild conjunctivitis or late development and/or rapid clearing of symptoms, ++ as keratoconjunctivitis without purulence, and +++ as fully developed keratoconjunctivitis with purulence.

[2] = Sf9380 pre-treated with 12.5 µmol/L
[3] = Sf9380 pre-treated with 25 µmol/L

T1 sequence (Q83RR1 251-486): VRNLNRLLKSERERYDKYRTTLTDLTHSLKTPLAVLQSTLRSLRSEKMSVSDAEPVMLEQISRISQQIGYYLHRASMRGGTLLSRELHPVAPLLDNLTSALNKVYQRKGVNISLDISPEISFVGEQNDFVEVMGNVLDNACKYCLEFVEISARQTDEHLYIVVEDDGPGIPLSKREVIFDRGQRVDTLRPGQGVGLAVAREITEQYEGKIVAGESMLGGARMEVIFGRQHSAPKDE

Compound	IC50 (SF-PhoQc)	effect on HeLa cell invasion ability of Sf301 (S. flexneri 2a 301)	CC50 [1]	degree of keratoconjunctival inflammation (S. flexneri Sf9380; 24 h, mouse 1)	degree of keratoconjunctival inflammation (S. flexneri Sf9380; 24 h, mouse 2)	degree of keratoconjunctival inflammation (S. flexneri Sf9380; 24 h, mouse 3)	degree of keratoconjunctival inflammation (S. flexneri Sf9380; 24 h, mouse 4)	degree of keratoconjunctival inflammation (S. flexneri Sf9380; 24 h, mouse 5)	degree of keratoconjunctival inflammation (S. flexneri Sf9380; 24 h, mouse 6)	degree of keratoconjunctival inflammation (S. flexneri Sf9380; 48 h, mouse 1)	degree of keratoconjunctival inflammation (S. flexneri Sf9380; 48 h, mouse 2)	degree of keratoconjunctival inflammation (S. flexneri Sf9380; 48 h, mouse 3)	degree of keratoconjunctival inflammation (S. flexneri Sf9380; 48 h, mouse 4)	degree of keratoconjunctival inflammation (S. flexneri Sf9380; 48 h, mouse 5)	degree of keratoconjunctival inflammation (S. flexneri Sf9380; 48 h, mouse 6)	degree of keratoconjunctival inflammation (S. flexneri Sf9380; 72 h, mouse 1)	degree of keratoconjunctival inflammation (S. flexneri Sf9380; 72 h, mouse 2)	degree of keratoconjunctival inflammation (S. flexneri Sf9380; 72 h, mouse 3)	degree of keratoconjunctival inflammation (S. flexneri Sf9380; 72 h, mouse 4)	degree of keratoconjunctival inflammation (S. flexneri Sf9380; 72 h, mouse 5)	further results
O=C(Nc1ccc(C2(c3cccc(NC(=O)c4cccc5ccccc45)c3)c3ccccc3C(=O)c3ccccc32)cc1)c1ccc2ccccc2c1 [Compound 1]	69.37 ± 0.56 µM	can inhibit	> 200 µM	+	+	+	−	+	+	−	−	+	−	−	−	−	−	−	−	−	degree of keratoconjunctival inflammation (S. flexneri Sf9380; 72 h, mouse 6): −; degree of keratoconjunctival inflammation (S. flexneri Sf9380; 96 h, mouse 1): −; degree of keratoconjunctival inflammation (S. flexneri Sf9380; 96 h, mouse 2): −; degree of keratoconjunctival inflammation (S. flexneri Sf9380; 96 h, mouse 3): −; degree of keratoconjunctival inflammation (S. flexneri Sf9380; 96 h, mouse 4): −; degree of keratoconjunctival inflammation (S. flexneri Sf9380; 96 h, mouse 5): −; degree of keratoconjunctival inflammation (S. flexneri Sf9380; 96 h, mouse 6): −; eye finding at 24 hours after infection (S. flexneri Sf9380; [2]): slight conjunctival inflammation; time by which keratoconjunctivitis was resolved (S. flexneri Sf9380; [2]): ≤ 48 h; keratoconjunctival inflammation (words, abstract) (S. flexneri Sf9380): no inflammation
CCOc1ccccc1-c1cc(C(=O)N/N=C/c2ccc(OCc3ccccc3)c(OC)c2)c2ccccc2n1 [Compound 2]	48.9 ± 14.7 µM	can inhibit	> 200 µM	+	+	+	+	+	+	−	+	−	−	−	−	−	−	−	−	−	degree of keratoconjunctival inflammation (S. flexneri Sf9380; 72 h, mouse 6): −; degree of keratoconjunctival inflammation (S. flexneri Sf9380; 96 h, mouse 1): −; degree of keratoconjunctival inflammation (S. flexneri Sf9380; 96 h, mouse 2): −; degree of keratoconjunctival inflammation (S. flexneri Sf9380; 96 h, mouse 3): −; degree of keratoconjunctival inflammation (S. flexneri Sf9380; 96 h, mouse 4): −; degree of keratoconjunctival inflammation (S. flexneri Sf9380; 96 h, mouse 5): −; degree of keratoconjunctival inflammation (S. flexneri Sf9380; 96 h, mouse 6): −; eye finding at 24 hours after infection (S. flexneri Sf9380; [3]): slight conjunctival inflammation; time by which keratoconjunctivitis was resolved (S. flexneri Sf9380; [3]): ≤ 48 h; keratoconjunctival inflammation (words, abstract) (S. flexneri Sf9380): no inflammation

From PMC3154276, “The Effect of the Potential PhoQ Histidine Kinase Inhibitors on Shigella flexneri Virulence” (PLoS ONE, 2011)
